This is an account of results in patent US20250034134A1, “15-PGDH INHIBITOR AND USE THEREOF” (Wuhan Humanwell Innovative Drug Research and Development …, priority 2021, published 2025).

Structures are written as SMILES. pIC50: −log10 of the molar value.

Broadly, the pIC50 is −log10 of the IC50, conventionally taken in molar units. A high value points to a small IC50.

The target in one assay is 15-PGDH (Homo sapiens (Human), UniProt P15428). Briefly: Inhibition test of compounds on 15-PGDH enzyme. It is filed as biochemical. On the procedure:
15-PGDH (R&D Systems, Cat. No.: 5660-DH-010) was prepared to twice the final concentration, i.e., 30 nM, using Assay Buffer (50 mM Tris-HCl, pH 7.5, 0.01vol % Tween 20). The obtained mixture was then added to a 384-well white plate (Cisbio Bioassays, Cat. No. 66PL384025) at 8 μL/well. Negative control wells (with Assay Buffer only and without enzyme) were set. The compound was then prepared to 4 times the final concentration using Assay Buffer, i.e., diluted 3-fold to 10 concentrations starting from 4000 nM. The obtained mixture was added to the above white plate at 4 μL/well, mixed well, centrifuged at 1000 rpm for 1 minute, and incubated at 25° C. for 10 minutes. Both positive control wells (with 15-PGDH only) and negative control wells (without 15-PGDH) were set. A mixture of NAD^+(Select, Cat. No. S2518) and PGE2 (R&D Systems, Cat. No.: 2296/10) was then prepared using Assay Buffer. NAD^+ and PGE2 were prepared to four times their final concentrations, i.e., 2 mM and 0.12 mM, respectively, using Assay Buffer. The obtained mixture was then added to the above white plate at 4 μL/well, mixed well, centrifuged at 1000 rpm for 1 minute, and incubated at 25° C. for 30 minutes for the reaction. The fluorescence was detected at an excitation wavelength of 340 nm and an emission wavelength of 485 nm using instrument TECAN SPARK 20M. The IC50 value was calculated using four-parameter fitting with GraphPad Prism 8.0.

A further assay relates to A549 cells. Briefly: Effect of compounds on PGE2 levels in A549 cell supernatant. It is filed as cell-based. To be noted: 20 nM compound, about 12 hours, after IL-10 stimulation; ELISA. On the procedure: A549 cells (Procell, Wuhan) were cultured in F12K+10% FBS. The cells with good status in log phase were selected for the experiment, digested, counted, and inoculated into a 24-well plate at 8000 cells per well. The cells were cultured in a 37° C., 5% CO2 incubator overnight. After adherence, the cells were transferred to a culture medium containing 0.5% FBS and cultured for about 10 hours. IL-10 was added to each well (final concentration of 20 ng/mL, 1 mL per well), and a control group (without IL-10) was set up. After stimulation with IL-10 for about 24 hours, the cell culture medium of each well was aspirated and discarded, and the wells were gently washed with fresh culture medium containing 0.5% FBS. 400 μL of culture medium containing the compound of different concentrations (20 nM and 2500 nM) was added to each well and cultured for about 12 hours. The supernatant was collected and PGE2 was detected using ELISA kit (R&D Systems, Cat. No.: KGE004B).
On the technique in general: An ELISA detects its analyte on a solid surface through an enzyme-linked reagent.

Sequence of 15-PGDH (P15428 whole entry): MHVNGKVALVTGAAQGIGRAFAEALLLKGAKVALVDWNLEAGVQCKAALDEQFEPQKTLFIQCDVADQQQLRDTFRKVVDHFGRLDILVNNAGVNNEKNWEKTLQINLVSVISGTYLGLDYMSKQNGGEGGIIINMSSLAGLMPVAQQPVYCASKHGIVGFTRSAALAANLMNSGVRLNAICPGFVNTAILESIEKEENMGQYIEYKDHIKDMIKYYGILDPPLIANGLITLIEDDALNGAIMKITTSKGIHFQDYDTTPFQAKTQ

In turn, `Cn1cnc2cc(N3CC4CC4c4cc(C(=O)N5CCC(F)(F)CC5)ccc43)cnc2c1=O` (stereo not drawn) [Compound I-15, 7-(6-(4,4-difluoropiperidine-1-carbonyl)-1,1a,2,7b-tetrahydro-3H-cyclopropa[c]quinolin-3-yl)-3-methylpyrido[3,2-d]pyrimidin-4(3H)-one] showed a negative logarithm of the IC50 (pIC50) at 15-PGDH of 8.24. Also, the “Fold increase of PGE2 in A549 cell supernatant” value (“Fold increase of PGE2” below) in the assay on A549 cells was found to be 3.7.

For `Cn1nc2cc(N3CC4CC4c4cc(C(=O)N5CCCC(F)(F)C5)cnc43)ccn2c1=O` (stereo not drawn) [Compound I-24, 7-(6-(3,3-difluoropiperidine-1-carbonyl)-1,1a,2,7b-tetrahydro-3H-cyclopropa[c][1,8]naphthyridin-3-yl)-2-methyl-[1,2,4]triazolo[4,3-a]pyridin-3(2H)-one], the negative logarithm of the IC50 (pIC50) against 15-PGDH was 8.37. For the same compound, the “Fold increase of PGE2” value in the assay on A549 cells is on record as 2.95. Take `[2H]C([2H])([2H])n1nc2cc(N3CC4CC4c4cc(C(=O)N5CCC(F)(F)CC5)cnc43)ccn2c1=O` (stereo not drawn) [Compound I-25, 7-(6-(4,4-difluoropiperidine-1-carbonyl)-1,1a,2,7b-tetrahydro-3H-cyclopropa[c][1,8]naphthyridin-3-yl)-2-(methyl-d3)-[1,2,4]triazolo[4,3-a]pyridin-3(2H)-one]: the pIC50 against 15-PGDH is 8.59. Still for that read-out and setting: for `CNC(=O)c1ccc(N2CC3CC3c3cc(C(=O)N4CCC(F)(F)CC4)cnc32)cc1F` (stereo not drawn) [Compound I-9, 4-(6-(4,4-difluoropiperidine-1-carbonyl)-1,1a,2,7b-tetrahydro-3H-cyclopropa[c][1,8]naphthyridin-3-yl)-2-fluoro-N-methylbenzamide] the value was 8.02; for `CN1Cc2cc(N3CC4CC4c4cc(C(=O)N5CCC(F)(F)CC5)cnc43)ncc2C1=O` (stereo not drawn) [Compound I-18, 6-(6-(4,4-difluoropiperidine-1-carbonyl)-1,1a,2,7b-tetrahydro-3H-cyclopropa[c][1,8]naphthyridin-3-yl)-2-methyl-1,2-dihydro-3H-pyrrolo[3,4-c]pyridin-3-one], 7.70; for `Cn1nc2cc(N3CC4CC4c4cc(C(=O)N5CCOCC5)cnc43)ccn2c1=O` (stereo not drawn) [Compound I-22, 2-methyl-7-(6-(morpholine-4-carbonyl)-1,1a,2,7b-tetrahydro-3H-cyclopropa[c][1,8]naphthyridin-3-yl)-[1,2,4]triazolo[4,3-a]pyridin-3(2H)-one], 7.99. Consider `Cn1nc2cc(N3CC4CC4c4cc(C(=O)N5CC(C)(F)C5)cnc43)ccn2c1=O` (stereo not drawn) [Compound I-20, 7-(6-(3-fluoro-3-methylazetidine-1-carbonyl)-1a,2-dihydro-1H-cyclopropa[c][1,8]naphthyridin-3(7bH)-yl)-2-methyl-[1,2,4]triazolo[4,3-a]pyridin-3(2H)-one], for which, at 15-PGDH, the pIC50 was 8.55. Further, the “Fold increase of PGE2” value in the assay with A549 cells is reported as 2.0. With `[2H]C([2H])([2H])n1nc2cc(N3CC4CC4c4cc(C(=O)N5CCC(F)(F)CC5)cnc43)ccn2c1=O` (single isomer, unassigned) [Compound I-25B], the pIC50 against 15-PGDH is 8.42. At 15-PGDH, `Cn1nc2cc(N3CC4CC4c4cc(C(=O)N5CCC(F)(F)C5)cnc43)ccn2c1=O` (stereo not drawn) [Compound I-21, 7-(6-(3,3-difluoropyrrolidine-1-carbonyl)-1,1a,2,7b-tetrahydro-3H-cyclopropa[c][1,8]naphthyridin-3-yl)-2-methyl-[1,2,4]triazolo[4,3-a]pyridin-3(2H)-one] had a pIC50 of 8.31. In the assay on A549 cells, the “Fold increase of PGE2” value worked out at 2.3. Regarding `Cn1nc2cc(N3CC4CC4c4cc(C(=O)N5CCCC(F)C5)cnc43)ccn2c1=O` (stereo not drawn) [Compound I-27, 7-(6-(3-fluoropiperidine-1-carbonyl)-1,1a,2,7b-tetrahydro-3H-cyclopropa[c][1,8]naphthyridin-3-yl)-2-methyl-[1,2,4]triazolo[4,3-a]pyridin-3(2H)-one], the pIC50 against 15-PGDH was 8.24. In the assay with A549 cells, the “Fold increase of PGE2” value is reported as 2.60. The like results for `Cn1nc2cc(N3CC4CC4c4cc(C(=O)N5CCCC(C(F)F)C5)cnc43)ccn2c1=O` (stereo not drawn) [Compound I-23, 7-(6-(3-(difluoromethyl)piperidine-1-carbonyl)-1,1a,2,7b-tetrahydro-3H-cyclopropa[c][1,8]naphthyridin-3-yl)-2-methyl-[1,2,4]triazolo[4,3-a]pyridin-3(2H)-one] were, in that order, 8.37 and 2.93. With `[2H]C([2H])([2H])n1nc2cc(N3CC4CC4c4cc(C(=O)N5CCC(F)(F)CC5)cnc43)ccn2c1=O` (single isomer, unassigned) [Compound I-25A], the pIC50 on 15-PGDH is 7.80. Regarding `CN1Cc2cc(N3CC4CC4c4cc(C(=O)N5CCC(F)(F)CC5)cnc43)cnc2C1=O` (stereo not drawn) [Compound I-2, 3-(6-(4,4-difluoropiperidine-1-carbonyl)-1,1a,2,7b-tetrahydro-3H-cyclopropa[c][1,8]naphthyridin-3-yl)-6-methyl-5,6-dihydro-7H-pyrrolo[3,4-b]pyridin-7-one], at 15-PGDH, the pIC50 is 8.29. Besides, the “Fold increase of PGE2” value in the assay with A549 cells worked out at 5.23.

With `Cn1ncc2cc(N3CC4CC4c4cc(C(=O)N5CCC(F)(F)CC5)ccc43)ccc2c1=O` (stereo not drawn) [Compound I-13, 6-(6-(4,4-difluoropiperidine-1-carbonyl)-1,1a,2,7b-tetrahydro-3H-cyclopropa[c]quinolin-3-yl)-2-methylphthalazin-1(2H)-one], the pIC50 at 15-PGDH was 8.39. Also, the “Fold increase of PGE2” value with A549 cells was determined as 6.1. With `Cn1ccc2cc(N3CC4CC4c4cc(C(=O)N5CCC(F)(F)CC5)cnc43)ccc2c1=O` (single isomer, unassigned) [Compound I-12A], at 15-PGDH, the pIC50 was 8.82. `Cn1nc2cc(N3CC4CC4c4cc(C(=O)N5CC6CC6C5)cnc43)ccn2c1=O` (stereo not drawn) [Compound I-29, 7-(6-(3-azabicyclo[3.1.0]hexane-3-carbonyl)-1,1a,2,7b-tetrahydro-3H-cyclopropa[c][1,8]naphthyridin-3-yl)-2-methyl-[1,2,4]triazolo[4,3-a]pyridin-3(2H)-one]: the pIC50 against 15-PGDH is 8.28. The “Fold increase of PGE2” value in the assay with A549 cells is reported as 2.3. The like results for `N#Cc1ccc(N2CC3CC3c3cc(C(=O)N4CCC(F)(F)CC4)cnc32)cc1` (stereo not drawn) [Compound I-11, 4-(6-(4,4-difluoropiperidine-1-carbonyl)-1,1a,2,7b-tetrahydro-3H-cyclopropa[c][1,8]naphthyridin-3-yl)benzonitrile] were, in that order, 8.42 and 1.88. For the compound `O=C(c1cnc2c(c1)C1CC1CN2c1ccn2cnnc2c1)N1CCC(F)(F)CC1` (stereo not drawn) [Compound I-17, (3-([1,2,4]triazolo[4,3-a]pyridin-7-yl)-1a,2,3,7b-tetrahydro-1H-cyclopropa[c][1,8]naphthyridin-6-yl)(4,4-difluoropiperidin-1-yl)methanone], the negative-log IC50 (pIC50) at 15-PGDH was 8.35. The “Fold increase of PGE2” value with A549 cells is 2.2. On 15-PGDH, `Cn1nc2cc(N3CC4CC4c4cc(C(=O)N5CCCC(C(F)(F)F)C5)cnc43)ccn2c1=O` (stereo not drawn) [Compound I-26, 2-methyl-7-(6-(3-(trifluoromethyl)piperidine-1-carbonyl)-1,1a,2,7b-tetrahydro-3H-cyclopropa[c] [1,8]naphthyridin-3-yl)-[1,2,4]triazolo[4,3-a]pyridin-3(2H)-one] had a pIC50 of 8.00. For the same compound, the “Fold increase of PGE2” value in the assay on A549 cells came out at 4.82.

`CCn1nc2cc(N3CC4CC4c4cc(C(=O)N5CCC(F)(F)CC5)cnc43)ccn2c1=O` (stereo not drawn) [Compound I-32, 7-(6-(4,4-difluoropiperidine-1-carbonyl)-1,1a,2,7b-tetrahydro-3H-cyclopropa[c][1,8]naphthyridin-3-yl)-2-ethyl-[1,2,4]triazolo[4,3-a]pyridin-3(2H)-one]: the pIC50 on 15-PGDH is 8.20. The “Fold increase of PGE2” value in the assay on A549 cells was determined as 3.7.

With `Cn1nc2cc(N3CC4CC4c4cc(C(=O)N5CCC[C@H](CF)C5)cnc43)ccn2c1=O` (stereo partly drawn) [Compound I-31, 7-(6-((S)-3-(fluoromethyl)piperidine-1-carbonyl)-1,1a,2,7b-tetrahydro-3H-cyclopropa[c][1,8]naphthyridin-3-yl)-2-methyl-[1,2,4]triazolo[4,3-a]pyridin-3(2H)-one], the negative logarithm of the IC50 (pIC50) against 15-PGDH was 8.39. In addition, the “Fold increase of PGE2” value with A549 cells stood at 2.90. `Cn1ccc2cc(N3CC4CC4c4cc(C(=O)N5CCC(F)(F)CC5)cnc43)ccc2c1=O` (single isomer, unassigned) [Compound I-12B]: the pIC50 against 15-PGDH is 8.13.
